# Tests used:
# [1] = system: A375 human melanoma xenografts; experiment: A375 human melanoma xenograft study 1 (tumor growth delay, toxicity); conditions: for share of mice with CR responses: q3d×4
# From the text: The following study evaluates two intravenous formulations according to the present invention against human tumor xenografts in athymic nude mice. The study used the A375 human melanoma xenograft model to compare the in vivo antitumor efficacy of I.V. 9-nitro-camptothecin, in vehicles containing IDD-P which provides a particulate suspension of 9-nitro-camptothecin, and IDD-D which provides a droplet suspension of 9-nitro-camptothecin, to the efficacy of oral 9-nitro-camptothecin and intraperitoneal CAMPTOSAR®, HYCAMTIN®, and DTIC®.
# In order to assess antitumor efficacy, groups of athymic nude mice (n=10) bearing ˜72-mg A375 melanomas were treated intravenously on the 5/2/5 schedule with 9-nitro-camptothecin in IDD-P at 3.0 mg/kg or 1.5 mg/kg and 9-nitro-camptothecin in IDD-D at 2.0 mg/kg or 1.0 mg/kg.
# Husbandry: Female nude mice were 16 weeks of age (NCR-nufBr; Taconic Farms) for the A375 study. The mice were fed ad libitum water (reverse osmosis, 1 ppm Cl) and autoclaved Prolab NIH-31 M/5% Rodent Diet consisting of 18% protein, 5% fat, 6% fiber, and 8% ash. Mice were housed in static microisolators on a 12-hour light cycle at 21-22° C. (70-72° F.) and 40%-60% humidity.
# Tumor Implantation: An A375 melanoma fragment (1 mm 3 ) was implanted subcutaneously in the flank of each nude mouse. When the tumors reached the 60-112 mg size range, the mice were sorted into treatment groups (on Day 1) such that the group mean tumor sizes ranged from 71.3 mg-72.5 mg. Estimated tumor weight was calculated using the formula: [formula]
# Drug Formulations: IDD-P with a mean particle size of 0.07-0.06 mm and IDD-D with a mean particle size of 0.15 mm were prepared for the study by RTP Pharma Inc. For this, the 9-nitro-camptothecin suspensions were diluted with water and vehicle to provide doses of 3 mg/kg and 1.5 mg/kg in 33% IDD-P, and doses of 2 mg/kg and 1 mg/kg in 100% and 50% IDD-D, respectively. After dilution, 9-nitro-camptothecin suspensions were mixed thoroughly by gentle agitation and stored at 2-8° C. For its oral formulation, 9-nitro-camptothecin was dissolved in DMA (N,N-dimethylacetamide, SIGMA) and diluted with D5W to yield a final DMA concentration of 3%. CAMPTOSAR®, DTIC®, and HYCAMTIN® were obtained as the marketed drugs and solutions were prepared fresh on the day of dosing. CAMPTOSAR® (irinotecan, Pharmacia & Upjohn Company, 20 mg/ml) and DTIC® (dacarbazine, Bayer Corporation, 20 mg/ml) were diluted with D5W. HYCAMTIN® (topotecan, SmithKlein Beecham) was reconstituted with water at 1 mg/ml.
# Treatments: Volumes of 0.20 ml per 20-g mouse, body-weight adjusted, were administered once daily. Tumor-bearing athymic nude mice were matched on Day 1 into 13 groups of ten animals and drug administration was initiated. The I.V. formulations of 9-nitro-camptothecin were given once daily on a 5/2/5 schedule as shown in the protocol summary shown in FIG. 4. Oral 9-nitro-camptothecin doses were given on a q3d×4 schedule (Days 1, 4, 8, and 11). Three reference drugs were administered I.P.: CAMPTOSAR® was given in three doses at weekly intervals (qwk×3); HYCAMTIN® was given in four doses at four-day intervals (q4d×4); and DTIC® was given in five consecutive daily doses (qd×5). The tumor growth control group for these reference treatments received no treatment (Group 1). The 9-nitro-camptothecin vehicle: 33.3% IDD-P, 100% IDD-D, and 3% DMA, was administered to vehicle control Groups 2-4, respectively.
# Tumor Growth Endpoint: The tumor growth delay (TGD) method was used to assess efficacy. Tumor dimensions were measured twice weekly until the experiment was terminated on Day 62.
# [2] = human plasma, pH 7.4, 37° C.; cited from earlier work
# [3] = whole blood; cited from earlier work
# [4] = target: human serum albumin (HSA) (Homo sapiens, UniProt P02768); conditions: PBS at pH 7.4; cited from earlier work
# [5] = 2.0 mg/kg p.o., q3d×4, Group 13, Day 62
# [6] = 4.0 mg/kg p.o., q3d×4, Group 12, Day 62
# human serum albumin (HSA), sequence (P02768 25-609): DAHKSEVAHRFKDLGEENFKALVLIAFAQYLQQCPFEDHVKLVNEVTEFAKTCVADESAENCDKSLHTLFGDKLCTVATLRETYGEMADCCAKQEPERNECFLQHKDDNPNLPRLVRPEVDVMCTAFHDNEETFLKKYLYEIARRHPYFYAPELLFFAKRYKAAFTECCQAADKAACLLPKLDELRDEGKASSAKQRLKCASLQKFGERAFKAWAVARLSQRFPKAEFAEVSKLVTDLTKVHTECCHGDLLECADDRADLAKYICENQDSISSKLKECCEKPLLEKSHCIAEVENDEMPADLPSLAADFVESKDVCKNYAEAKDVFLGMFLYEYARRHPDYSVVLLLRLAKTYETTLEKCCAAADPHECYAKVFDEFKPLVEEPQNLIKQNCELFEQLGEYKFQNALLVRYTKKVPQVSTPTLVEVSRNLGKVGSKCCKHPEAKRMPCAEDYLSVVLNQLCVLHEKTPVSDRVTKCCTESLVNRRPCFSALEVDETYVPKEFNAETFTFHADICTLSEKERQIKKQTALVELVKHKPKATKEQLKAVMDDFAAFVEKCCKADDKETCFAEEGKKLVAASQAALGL
structure (smiles),measurement,setting,value
"CC[C@@]1(O)C(=O)OCc2c1cc1n(c2=O)Cc2cc3c([N+](=O)[O-])cccc3nc2-1 [9-nitro-camptothecin in 3% DMA, 9-nitro-20(S)-camptothecin]",share of mice with CR responses,[1]; 2 mg/kg p.o.,40%
same,CR responses,[1]; [5],4
same,PR responses (printed RP),[1]; [5],1
same,SD/PD responses,[1]; [5],2
same,62-day survivors,"[1]; 2.0 mg/kg p.o., q3d×4, Group 13, n=10",seven
same,share of mice with CR responses,[1]; 4 mg/kg p.o.,40%
same,CR responses,[1]; [6],4
same,SD/PD responses,[1]; [6],3
same,62-day survivors,"[1]; 4.0 mg/kg p.o., q3d×4, Group 12, n=10",seven
"CCc1c2c(nc3ccc(OC(=O)N4CCC(N5CCCCC5)CC4)cc13)-c1cc3c(c(=O)n1C2)COC(=O)[C@]3(O)CC [CAMPTOSAR®, irinotecan]",CR responses,"[1]; 100 mg/kg I.P., qwk×3, Group 5, Day 62",single and one
"CN(C)/N=N/c1[nH]cnc1C(N)=O [DTIC®, dacarbazine]",toxic deaths,"[1]; 150 mg/kg I.P., qd×5, Group 7, n=10",one and One
"CC[C@@]1(O)C(=O)OCc2c1cc1n(c2=O)Cc2cc3c(CN(C)C)c(O)ccc3nc2-1 [HYCAMTIN®, topotecan]",CR responses,"[1]; 10 mg/kg I.P., q4d×4, Group 6, Day 62",single and one
"CC[C@@]1(O)C(=O)OCc2c1cc1n(c2=O)Cc2cc3ccccc3nc2-1 [camptothecin, 20(S)-camptothecin]",half-life of α-hydroxy lactone ring opening,[2],11 min
same,half-life of α-hydroxy lactone,[3],22 min
CC[C@@](O)(C(=O)O)c1cc2n(c(=O)c1CO)Cc1cc3ccccc3nc1-2 [carboxylate form of camptothecin],affinity for HSA of carboxylate form relative to α-hydroxy lactone form,[4],150 fold

# — patent publication US6534080B2, “Method for administering camptothecins via injection of pharmaceutical composition comprising coated particles of a camptothecin” (priority 2001, dated 2003)
